Experimental data taken from the supplement of paper PMC11451515.

Assays:
Details in all cases: 48 h
P12-Ichikawa [1] = experiment: AUC of viability dose-response curve (% viability x log10 dose units); higher = less sensitive
In short: (§1)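 Leukemia cells adapted to each medium were seeded in 1536-well plates (500 or 1000 cells/well) and given library compounds in DMSO for 48 h at 37°C. The 11 threefold doses spanned 47 μM to 0.79 nM, and CellTiter-Glo One luminescence was normalised per plate to DMSO and cell-free wells before four-parameter log-logistic fitting on log10 dose. Area under the curve was integrated with the trapezoidal rule, scaling curves above full viability and removing curves that failed quality control.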

NOMO1 [2] = experiment: as above
In short: as §1

SEM cells [3] = experiment: as above
In short: as §1

P12-Ichikawa [4] = experiment: cell viability relative to DMSO control; higher = less cytotoxic
In short: (§2)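 Viability is expressed as a percentage of DMSO wells within each plate, and cell-free wells serve as background. Seeding densities in the 1536-well plates (5 μl) were 500 cells/well for NOMO1 or SEM leukemia cells and 1000 cells/well for P12-Ichikawa. Each line was adapted for at least four passages in each medium. Library compounds in DMSO were pin-dosed at 47 μM to 0.79 nM (11 points, threefold), and CellTiter-Glo One luminescence was read after 48 h at 37°C.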

NOMO1 [5] = experiment: as above
In short: as §2

SEM cells [6] = experiment: as above
In short: as §2

Cc1nc(-c2ccc(OCC(C)C)c(C#N)c2)sc1C(=O)O
AUC of viability dose-response curve
Details	NOMO1 [2]	P12-Ichikawa [1]	SEM cells [3]
HPLM + 10% dialyzed FBS	461	467	475
RPMI 5 mM glucose + 10% FBS	471	424	472
RPMI 5 mM glucose + 10% dialyzed FBS	468	437	458

cell viability [%]
Details	NOMO1 [5]	P12-Ichikawa [4]	SEM cells [6]
HPLM + 10% dialyzed FBS, 0.000781 µM	104	114	110
HPLM + 10% dialyzed FBS, 0.00234 µM	123	124	110
HPLM + 10% dialyzed FBS, 0.00702 µM	127	122	101
HPLM + 10% dialyzed FBS, 0.0211 µM	128	117	120
HPLM + 10% dialyzed FBS, 0.0632 µM	142	119	115
HPLM + 10% dialyzed FBS, 0.19 µM	126	117	104
HPLM + 10% dialyzed FBS, 0.569 µM	153	112	122
HPLM + 10% dialyzed FBS, 1.71 µM	137	116	108
HPLM + 10% dialyzed FBS, 5.12 µM	140	119	106
HPLM + 10% dialyzed FBS, 15.4 µM	118	106	110
HPLM + 10% dialyzed FBS, 46.1 µM	138	92.7	113
RPMI 5 mM glucose + 10% FBS, 0.000781 µM	111	–	125
RPMI 5 mM glucose + 10% FBS, 0.00234 µM	128	–	112
RPMI 5 mM glucose + 10% FBS, 0.00702 µM	119	–	116
RPMI 5 mM glucose + 10% FBS, 0.0211 µM	121	–	104
RPMI 5 mM glucose + 10% FBS, 0.0632 µM	137	–	105
RPMI 5 mM glucose + 10% FBS, 0.19 µM	129	–	104
RPMI 5 mM glucose + 10% FBS, 0.569 µM	138	–	121
RPMI 5 mM glucose + 10% FBS, 1.71 µM	137	–	105
RPMI 5 mM glucose + 10% FBS, 5.12 µM	117	–	105
RPMI 5 mM glucose + 10% FBS, 15.4 µM	131	–	122
RPMI 5 mM glucose + 10% FBS, 46.1 µM	118	–	124
RPMI 5 mM glucose + 10% dialyzed FBS, 0.000781 µM	120	–	107
RPMI 5 mM glucose + 10% dialyzed FBS, 0.00234 µM	123	–	132
RPMI 5 mM glucose + 10% dialyzed FBS, 0.00702 µM	120	–	121
RPMI 5 mM glucose + 10% dialyzed FBS, 0.0211 µM	116	–	131
RPMI 5 mM glucose + 10% dialyzed FBS, 0.0632 µM	132	–	127
RPMI 5 mM glucose + 10% dialyzed FBS, 0.19 µM	131	–	111
RPMI 5 mM glucose + 10% dialyzed FBS, 0.569 µM	122	–	106
RPMI 5 mM glucose + 10% dialyzed FBS, 1.71 µM	125	–	111
RPMI 5 mM glucose + 10% dialyzed FBS, 5.12 µM	125	–	126
RPMI 5 mM glucose + 10% dialyzed FBS, 15.4 µM	125	–	132
RPMI 5 mM glucose + 10% dialyzed FBS, 46.1 µM	129	–	138

CC(=O)SC[C@@H](C)C(=O)N1CCC[C@H]1C(=O)N[C@@H](Cc1ccccc1)C(=O)O
AUC of viability dose-response curve
Details	NOMO1 [2]	P12-Ichikawa [1]	SEM cells [3]
HPLM + 10% dialyzed FBS	448	466	454
RPMI 5 mM glucose + 10% FBS	450	466	454
RPMI 5 mM glucose + 10% dialyzed FBS	466	462	472

cell viability [%]
Details	NOMO1 [5]	P12-Ichikawa [4]	SEM cells [6]
HPLM + 10% dialyzed FBS, 0.000781 µM	117	99.5	116
HPLM + 10% dialyzed FBS, 0.00234 µM	119	108	107
HPLM + 10% dialyzed FBS, 0.00702 µM	95.1	108	99.6
HPLM + 10% dialyzed FBS, 0.0211 µM	105	104	110
HPLM + 10% dialyzed FBS, 0.0632 µM	115	113	115
HPLM + 10% dialyzed FBS, 0.19 µM	114	107	103
HPLM + 10% dialyzed FBS, 0.569 µM	97.2	106	111
HPLM + 10% dialyzed FBS, 1.71 µM	101	104	106
HPLM + 10% dialyzed FBS, 5.12 µM	111	102	107
HPLM + 10% dialyzed FBS, 15.4 µM	110	101	66.7
HPLM + 10% dialyzed FBS, 46.1 µM	89.3	94.1	83.3
RPMI 5 mM glucose + 10% FBS, 0.000781 µM	93.5	103	83.8
RPMI 5 mM glucose + 10% FBS, 0.00234 µM	106	93.2	86.2
RPMI 5 mM glucose + 10% FBS, 0.00702 µM	105	97.6	95.3
RPMI 5 mM glucose + 10% FBS, 0.0211 µM	88.7	100	98.1
RPMI 5 mM glucose + 10% FBS, 0.0632 µM	94.1	102	105
RPMI 5 mM glucose + 10% FBS, 0.19 µM	100	97.8	97.7
RPMI 5 mM glucose + 10% FBS, 0.569 µM	94.4	102	110
RPMI 5 mM glucose + 10% FBS, 1.71 µM	94.5	96.7	97.2
RPMI 5 mM glucose + 10% FBS, 5.12 µM	85.3	98.4	113
RPMI 5 mM glucose + 10% FBS, 15.4 µM	82.5	91.3	87.1
RPMI 5 mM glucose + 10% FBS, 46.1 µM	92.1	90	72.6
RPMI 5 mM glucose + 10% dialyzed FBS, 0.000781 µM	103	99.7	95.1
RPMI 5 mM glucose + 10% dialyzed FBS, 0.00234 µM	99.5	101	98.3
RPMI 5 mM glucose + 10% dialyzed FBS, 0.00702 µM	107	102	114
RPMI 5 mM glucose + 10% dialyzed FBS, 0.0211 µM	106	101	104
RPMI 5 mM glucose + 10% dialyzed FBS, 0.0632 µM	112	99.7	104
RPMI 5 mM glucose + 10% dialyzed FBS, 0.19 µM	89.5	100	103
RPMI 5 mM glucose + 10% dialyzed FBS, 0.569 µM	106	95.4	107
RPMI 5 mM glucose + 10% dialyzed FBS, 1.71 µM	97.3	101	101
RPMI 5 mM glucose + 10% dialyzed FBS, 5.12 µM	103	92.2	110
RPMI 5 mM glucose + 10% dialyzed FBS, 15.4 µM	106	90.8	101
RPMI 5 mM glucose + 10% dialyzed FBS, 46.1 µM	91.5	85.2	85.7
